Experimental data as given in patent publication US20250213701A1, “MEDICAMENT FOR TREATING HUMAN TUMOR BASED ON ERF3A-TARGETING PROTEOLYSIS MECHANISM” (SUZHOU DEGEN BIO-MEDICAL CO., LTD., priority 2022, published 2025).

What was measured:
Type in all cases: cell-based, human
22Rv1 cells = experiment: Anti-proliferative toxicity against prostate cancer cell line 22Rv1 (CCK8); details: 3 days; for IC50: Homo sapiens, 72 h, CCK8
Method in brief: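 22Rv1 cells pre-cultured for 48 h, then exposed to compounds at 0.00001-1.0 μM final, in triplicate, for 3 days. Viability read by CCK8 absorbance at 450 nm after 1-4 h at 37 °C.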

PC-3 cells = experiment: Anti-proliferative toxicity against prostate cancer cell line PC-3 (CCK8); details: Homo sapiens, 72 h, 3 days
Method in brief: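 PC-3 cells (4000/well, pre-cultured 24 h) exposed in triplicate to compound at final 0.00001-1.0 μM for 3 days at 37 °C, 5% CO2. Viability read by CCK8, 1-4 h at 37 °C, absorbance at 450 nm.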

VCaP cells = experiment: Anti-proliferative toxicity against prostate cancer cell line Vcap (CCK8); details: 3 days; for IC50: Homo sapiens, 72 h, CCK8
Method in brief: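 VCaP cells (DMEM, 10% FBS) seeded 20000 cells/well, cultured 72 h, then exposed in triplicate to compound at final well concentrations of 0.00001–0.16 μM for 3 days at 37 °C, 5% CO2. Viability by CCK8, 1–4 h at 37 °C, absorbance at 450 nm.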

| Structure (SMILES) | IC50 (22Rv1 cells) [nM] | IC50 (PC-3 cells) [nM] | IC50 (VCaP cells) [nM] | other results |
| --- | --- | --- | --- | --- |
| C[C@]12C=CC(=O)N[C@@H]1CC[C@@H]1[C@@H]2CC[C@]2(C)[C@@H](C(=O)Nc3cccc(OCCCOc4cccc5c4C(=O)N(C4CCC(=O)NC4=O)C5=O)c3)CC[C@@H]12 (stereo partly drawn) [C46, N-(3-((3-((4-(2-(3-(2,6-dioxopiperidine))-isoindole-1,3-dione))oxy)propyl)oxy)phenyl)-3-oxo-4-aza-5α-androst-1-ene-17β-carboxamide] | 0.1 to 10 | > 1000 | 0.1 to 10 |  |
| C[C@]12C=CC(=O)N[C@@H]1CC[C@@H]1[C@@H]2CC[C@]2(C)[C@@H](C(=O)Nc3ccc(OCCNc4ccc5c(c4)C(=O)N(C4CCC(=O)NC4=O)C5=O)nc3)CC[C@@H]12 (stereo partly drawn) [C47, N-(5-(2-((2-((5-(2-(3-(2,6-dioxopiperidine))-isoindole-1,3-dione))amino)ethyl)oxy)pyridine))-3-oxo-4-aza-5α-androst-1-ene-17β-carboxamide] | 10 to 1000 | > 1000 | 10 to 1000 |  |
| C[C@]12C=CC(=O)N[C@@H]1CC[C@@H]1[C@@H]2CC[C@]2(C)[C@@H](C(=O)Nc3cccc(N4CCC(CNc5cccc6c5C(=O)N(C5CCC(=O)NC5=O)C6=O)CC4)c3)CC[C@@H]12 (stereo partly drawn) [C48, N-(3-(4-(((4-(2-(3-(2,6-dioxopiperidine))-isoindole-1,3-dione))amino)methyl)piperidine)phenyl)-3-oxo-4-aza-5α-androst-1-ene-17β-carboxamide] | > 1000 | > 1000 | > 1000 |  |
| CC(C)(C)C(=O)OCN1C(=O)CCC(N2C(=O)c3cccc(NCCCOc4cccc(NC(=O)[C@H]5CC[C@H]6[C@@H]7CC[C@H]8NC(=O)C=C[C@]8(C)[C@H]7CC[C@]56C)c4)c3C2=O)C1=O (stereo partly drawn) [C49, N-(3-((3-((4-(2-(3-(1-pivaloyloxymethyl-2,6-dioxopiperidine))-isoindole-1,3-dione))amino)propyl)oxy)phenyl)-3-oxo-4-aza-5α-androst-1-ene-17β-carboxamide] | 0.1 to 10 | > 1000 | 0.1 to 10 |  |
| C[C@]12C=CC(=O)N[C@@H]1CC[C@@H]1[C@@H]2CC[C@]2(C)[C@@H](C(=O)Nc3cccc(NCCCNc4cccc5c4C(=O)N(C4CCC(=O)NC4=O)C5=O)c3)CC[C@@H]12 (stereo partly drawn) [C50, N-(3-((3-((4-(2-(3-(2,6-dioxopiperidine))-isoindole-1,3-dione))amino)propyl)amino)phenyl)-3-oxo-4-aza-5α-androst-1-ene-17β-carboxamide] | 0.1 to 10 | 10 to 1000 | 0.1 to 10 | Anti-proliferative toxicity data in 22Rv1 cells (22Rv1 cells; 0.00006 μM): 6.6%; Anti-proliferative toxicity data in 22Rv1 cells (22Rv1 cells; 0.00032 μM): 45.2%; Anti-proliferative toxicity data in 22Rv1 cells (22Rv1 cells; 0.00160 μM): 78.4%; Anti-proliferative toxicity data in 22Rv1 cells (22Rv1 cells; 0.00800 μM): 80.7%; Anti-proliferative toxicity data in 22Rv1 cells (22Rv1 cells; 0.04000 μM): 75.0%; Anti-proliferative toxicity data in 22Rv1 cells (22Rv1 cells; 0.20000 μM): 80.6%; Anti-proliferative toxicity data in 22Rv1 cells (22Rv1 cells; 1.00000 μM): 81.5%; Anti-proliferative toxicity data in VCaP cells (VCaP cells; 0.00005 μM): 1.2%; Anti-proliferative toxicity data in VCaP cells (VCaP cells; 0.00010 μM): 22.8%; Anti-proliferative toxicity data in VCaP cells (VCaP cells; 0.00030 μM): 72.3%; Anti-proliferative toxicity data in VCaP cells (VCaP cells; 0.00100 μM): 86.6%; Anti-proliferative toxicity data in VCaP cells (VCaP cells; 0.00300 μM): 90.5%; Anti-proliferative toxicity data in VCaP cells (VCaP cells; 0.00600 μM): 90.7%; Anti-proliferative toxicity data in VCaP cells (VCaP cells; 0.03200 μM): 91.5%; Anti-proliferative toxicity data in VCaP cells (VCaP cells; 0.16000 μM): 91.7% |
| C[C@]12C=CC(=O)N[C@@H]1CC[C@@H]1[C@@H]2CC[C@]2(C)[C@@H](C(=O)Nc3ccc(Cl)c(OCCCNc4cccc5c4C(=O)N(C4CCC(=O)NC4=O)C5=O)c3)CC[C@@H]12 (stereo partly drawn) [C51, N-(3-((3-((4-(2-(3-(2,6-dioxopiperidine))-isoindole-1,3-dione))amino)propyl)oxy)-4-chloro-phenyl)-3-oxo-4-aza-5α-androst-1-ene-17β-carboxamide] | > 1000 | > 1000 | > 1000 |  |
| Cc1ccc(NC(=O)[C@H]2CC[C@H]3[C@@H]4CC[C@H]5NC(=O)C=C[C@]5(C)[C@H]4CC[C@]23C)cc1OCCCNc1cccc2c1C(=O)N(C1CCC(=O)NC1=O)C2=O (stereo partly drawn) [C52, N-(3-((3-((4-(2-(3-(2,6-dioxopiperidine))-isoindole-1,3-dione))amino)propyl)oxy)-4-methyl-phenyl)-3-oxo-4-aza-5α-androst-1-ene-17β-carboxamide] | > 1000 | > 1000 | > 1000 |  |
| C[C@]12C=CC(=O)N[C@@H]1CC[C@@H]1[C@@H]2CC[C@]2(C)[C@@H](C(=O)Nc3cc(OCCCNc4cccc5c4C(=O)N(C4CCC(=O)NC4=O)C5=O)ccn3)CC[C@@H]12 (stereo partly drawn) [C53, N-(2-(4-((3-((4-(2-(3-(2,6-dioxopiperidine))-isoindole-1,3-dione))amino)propyl)oxy)-pyridine))-3-oxo-4-aza-5α-androst-1-ene-17β-carboxamide] | > 1000 | > 1000 | > 1000 |  |
| C[C@]12C=CC(=O)N[C@@H]1CC[C@@H]1[C@@H]2CC[C@]2(C)[C@@H](C(=O)Nc3cccc(NC4CCC(Nc5cccc6c5C(=O)N(C5CCC(=O)NC5=O)C6=O)CC4)c3)CC[C@@H]12 (stereo partly drawn) [C54, N-(3-((4-((4-(2-(3-(2,6-dioxopiperidine))-isoindole-1,3-dione))amino)cyclohexyl)amino)phenyl)-3-oxo-4-aza-5α-androst-1-ene-17β-carboxamide] | > 1000 | > 1000 | > 1000 |  |
| C[C@]12C=CC(=O)N[C@@H]1CC[C@@H]1[C@@H]2CC[C@]2(C)[C@@H](C(=O)Nc3cc(Cl)cc(OCCCNc4cccc5c4C(=O)N(C4CCC(=O)NC4=O)C5=O)c3)CC[C@@H]12 (stereo partly drawn) [C55, N-(3-((3-((4-(2-(3-(2,6-dioxopiperidine))-isoindole-1,3-dione))amino)propyl)oxy)-5-chloro-phenyl)-3-oxo-4-aza-5α-androst-1-ene-17β-carboxamide] | 10 to 1000 | > 1000 | 10 to 1000 |  |
| C[C@]12C=CC(=O)N[C@@H]1CC[C@@H]1[C@@H]2CC[C@]2(C)[C@@H](C(=O)Nc3cccc(NCCNc4cccc5c4C(=O)N(C4CCC(=O)NC4=O)C5=O)c3)CC[C@@H]12 (stereo partly drawn) [C56, N-(3-((2-((4-(2-(3-(2,6-dioxopiperidine))-isoindole-1,3-dione))amino)ethyl)amino)phenyl)-3-oxo-4-aza-5α-androst-1-ene-17β-carboxamide] | > 1000 | > 1000 | > 1000 |  |
| C[C@]12C=CC(=O)N[C@@H]1CC[C@@H]1[C@@H]2CC[C@]2(C)[C@@H](C(=O)Nc3cccc(OC4CCC(Nc5cccc6c5C(=O)N(C5CCC(=O)NC5=O)C6=O)C4)c3)CC[C@@H]12 (stereo partly drawn) [C57, N-(3-((3-((4-(2-(3-(2,6-dioxopiperidine))-isoindole-1,3-dione))amino)cyclopentyl)oxy)phenyl)-3-oxo-4-aza-5α-androst-1-ene-17β-carboxamide] | 10 to 1000 | > 1000 | 10 to 1000 |  |
| C[C@]12C=CC(=O)N[C@@H]1CC[C@@H]1[C@@H]2CC[C@]2(C)[C@@H](C(=O)Nc3cccc(NC4CCCC(Nc5cccc6c5C(=O)N(C5CCC(=O)NC5=O)C6=O)C4)c3)CC[C@@H]12 (stereo partly drawn) [C58, N-(3-(N—(N-(4-(2-(3-(2,6-dioxopiperidine))-isoindole-1,3-dione))cyclohexanediamine))phenyl)-3-oxo-4-aza-5α-androst-1-ene-17β-carboxamide] | 0.1 to 10 | 10 to 1000 | 0.1 to 10 |  |
| C[C@]12C=CC(=O)N[C@@H]1CC[C@@H]1[C@@H]2CC[C@]2(C)[C@@H](C(=O)Nc3cccc(N[C@H]4CCC[C@H](Nc5cccc6c5C(=O)N(C5CCC(=O)NC5=O)C6=O)C4)c3)CC[C@@H]12 (stereo partly drawn) [C60, N-(3-(N—(N-(4-(2-(3-(2,6-dioxopiperidine))-isoindole-1,3-dione))-1S,3S-cyclohexanediamine))phenyl)-3-oxo-4-aza-5α-androst-1-ene-17β-carboxamide] | 10 to 1000 | > 1000 | 10 to 1000 |  |
| C[C@]12C=CC(=O)N[C@@H]1CC[C@@H]1[C@@H]2CC[C@]2(C)[C@@H](C(=O)Nc3cccc(N[C@H]4CCC[C@@H](Nc5cccc6c5C(=O)N(C5CCC(=O)NC5=O)C6=O)C4)c3)CC[C@@H]12 (stereo partly drawn) [C61, N-(3-(N—(N-(4-(2-(3-(2,6-dioxopiperidine))-isoindole-1,3-dione))-1S,3R-cyclohexanediamine))phenyl)-3-oxo-4-aza-5α-androst-1-ene-17β-carboxamide] | > 1000 | > 1000 | > 1000 |  |
| C[C@]12C=CC(=O)N[C@@H]1CC[C@@H]1[C@@H]2CC[C@]2(C)[C@@H](C(=O)Nc3cccc(N[C@@H]4CCC[C@@H](Nc5cccc6c5CN(C5CCC(=O)NC5=O)C6=O)C4)c3)CC[C@@H]12 (stereo partly drawn) [C62, N-(3-(N—(N-(4-(2-(3-(2,6-dioxopiperidine))-1-oxo-2,3-dihydro-1H-isoindol))-1R,3R-cyclohexanediamine))phenyl)-3-oxo-4-aza-5α-androst-1-ene-17β-carboxamide] | > 1000 | > 1000 | 10 to 1000 |  |
